# Measured values as given in the OligoGym collection.
# “And” between values parts separate entries of the source, which are not always exact repeats. Equal entries are not always repeated. After the bases stand the sugars from the 5' end (letter, count) and the backbone: PS all phosphorothioate, else s phosphorothioate and o phosphodiester by linkage. Methylation of C is not given here. e = 2'-O-(2-methoxyethyl) (MOE); d = 2'-deoxy (DNA)
# Biological target: DGAT2
# Details: ASO
Sequence,"target mRNA inhibition (HepG2, 2.5 µM)","target mRNA inhibition (HepG2, 10 µM)","target mRNA inhibition (HepG2, 0.12 µM)"
"ACCATAATCTGCACAGGTTC (sugars e5 d10 e5, PS)",62%,84%,–
"ACCATTTTCACAAGGAGAAG (sugars e5 d10 e5, PS)",–,–,30%
"ACCCAACCTTTAAGGCCTAT (sugars e5 d10 e5, PS)",69% and 59% and 70%,93% and 91% and 95%,–
"ACCCCGGAGTAGGCGGCTAT (sugars e5 d10 e5, PS)",–,–,46%
"ACTCAAAAATATACATGCTC (sugars e5 d10 e5, PS)",67%,92%,–
"ACTTTTTCCTTCTTAAAAAA (sugars e5 d10 e5, PS)",–,–,0%
"AGACATCAGGTACTCCCTCA (sugars e5 d10 e5, PS)",–,–,35%
"AGAGGTTCAACATCCAATTT (sugars e5 d10 e5, PS)",0%,86%,–
"AGATGGACAGGTGATTCTAA (sugars e5 d10 e5, PS)",–,–,50%
"AGCACTGACATGGTAAGTCC (sugars e5 d10 e5, PS)",75% and 68%,93% and 91%,–
"AGCCAGGTAAGGCCGTATGC (sugars e5 d10 e5, PS)",–,–,70%
"AGCCCTCCTCGAAGATCACC (sugars e5 d10 e5, PS)",–,–,39%
"AGCCTGGATGGTGGTTGCAA (sugars e5 d10 e5, PS)",73%,78%,–
"AGCTCAGAGACTCAGCCGCA (sugars e2 d13 e5, PS)",–,–,86%
"AGCTCATGAGAAGCTTAGAA (sugars e5 d10 e5, PS)",62%,82%,–
"AGCTTCACCAGGGCCTCCAT (sugars e5 d10 e5, PS)",–,–,42%
"AGGAAGGAAATGCTAGGCCT (sugars e5 d10 e5, PS)",–,–,64%
"AGGCACCTGTTACTACATGT (sugars e5 d10 e5, PS)",78%,93% and 91%,–
"AGGCATGCTTCCTCCCACTT (sugars e5 d10 e5, PS)",53%,85%,–
"AGGCCACAGTGGCAACAGAG (sugars e5 d10 e5, PS)",–,–,54%
"AGGGCACCAGCCCCCAGGTG (sugars e5 d10 e5, PS)",–,–,29%
"AGGTAAGGCCGTATGCCTGG (sugars e3 d14 e3, PS)",–,–,67%

Sequence,"target mRNA inhibition (HepG2, 2.5 µM)","target mRNA inhibition (HepG2, 10 µM)","target mRNA inhibition (HepG2, 0.12 µM)"
"AGGTAAGGCCGTATGCCTGG (sugars e5 d10 e5, PS)",–,–,72%
"AGTAAGCCTCGGTGTCCTCT (sugars e5 d10 e5, PS)",61% and 76% and 75%,92% and 91% and 95%,–
"AGTAGTCTCGAAAGTAGCGC (sugars e5 d10 e5, PS)",–,–,39%
"AGTCACTGACTCACAACAGC (sugars e5 d10 e5, PS)",45%,83%,–
"AGTCTTCCTTCTCCTCCACC (sugars e5 d10 e5, PS)",69%,84%,–
"AGTGCTTTCTAAGTACCCTT (sugars e5 d10 e5, PS)",91% and 88%,90% and 94%,–
"AGTTTCACAAAGCCCTTGCG (sugars e5 d10 e5, PS)",–,–,25%
"ATACCTTATCTTTGTCCACA (sugars e5 d10 e5, PS)",79%,94%,–
"ATAGCATTGCCACTCCCATT (sugars e3 d14 e3, PS)",–,–,71%
"ATAGTTCCTGGTGGTCAGCA (sugars e5 d10 e5, PS)",–,–,46%
"ATCACAGAATTATCAGCAGT (sugars e5 d10 e5, PS)",59%,92%,–
"ATCACAGAGCTTGGTTCATC (sugars e5 d10 e5, PS)",61% and 44%,93% and 85%,–
"ATCACTTGCTTGAGGTCAGG (sugars e5 d10 e5, PS)",70%,90%,–
"ATCCAGAGACTGAATTCTAG (sugars e5 d10 e5, PS)",61%,88%,–
"ATCCATGTCATCAGCCACCC (sugars e5 d10 e5, PS)",61% and 63%,86% and 80%,–
"ATCCCAACTCTGCCATTTAA (sugars e5 d10 e5, PS)",60%,90%,–
"ATCCTGGAGGCCAGTCCAGG (sugars e5 d10 e5, PS)",–,–,18%
"ATGACCTTGGGTCAGAGGAA (sugars e5 d10 e5, PS)",61%,46%,–
"ATGAGCTCTCAAGTCTTCCT (sugars e5 d10 e5, PS)",67%,93%,–
"ATGCCAATGCCTAGGTCACA (sugars e5 d10 e5, PS)",78%,91%,–
"ATGCCTGAGGGCAGCAGTGT (sugars e5 d10 e5, PS)",–,–,45%
"ATGGAGTGACAGGGCAGGAA (sugars e5 d10 e5, PS)",–,–,59%
